Laboratory results taken from publication PMC10178848, “Modulating fast skeletal muscle contraction protects skeletal muscle in animal models of Duchenne muscular dystrophy” (The Journal of Clinical Investigation, 2023).

System: mdx mouse EDL muscle
Test: Phosphoprotein array analysis (Cell Signaling Phospho Antibody Array)
Conditions: phospho/total, T vs C
Method: mdx mouse EDL muscle was prepared for ex vivo analysis as described (n = 5). Muscles were incubated for 1 hour with DMSO or EDG-5506 (5 μM) and then flash frozen in liquid nitrogen. Tissue preparation and analysis were performed as recommended by the manufacturer (Cell Signaling Phospho Antibody Array, Full Moon Biosystems).

O=c1ccc(-c2cnc(OCC(F)(F)F)nc2)nn1Cc1cncc(F)c1 [EDG-5506]
Ratio (T/C): Integrin beta-3 (Phospho-Tyr773) to total Integrin beta-3 (Ab-773): 0.8566 | Ratio (T/C): Interferon-gamma receptor alpha (Phospho-Tyr457) to total Interferon-alpha/beta receptor alpha chain (Ab-466): 0.992 | Ratio (T/C): JAK2 (Phospho-Tyr221) to total JAK2 (Ab-1007): 0.5849 | Ratio (T/C): JunB (Phospho-Ser259) to total JunB (Ab-259): 0.7783 | Ratio (T/C): LKB1 (Phospho-Thr189) to total LKB1 (Ab-334): 1.099 | Ratio (T/C): LYN (Phospho-Tyr507) to total LYN (Ab-507): 1.819 | Ratio (T/C): Lamin A/C (Phospho-Ser392) to total Lamin A/C (Ab-392): 0.4365 | Ratio (T/C): MDM2 (Phospho-Ser166) to total MDM2 (Ab-166): 0.7195 | Ratio (T/C): MEK1 (Phospho-Ser217) to total MEK1 (Ab-291): 0.8093 | Ratio (T/C): MEK1 (Phospho-Ser221) to total MEK1 (Ab-291): 1.481 | Ratio (T/C): MITF (Phospho-Ser73) to total MITF (Ab-73): 0.8065 | Ratio (T/C): MSK1 (Phospho-Ser376) to total MSK1 (Ab-360): 1.21 | Ratio (T/C): Myc (Phospho-Ser62) to total Myc (Ab-58): 0.9423 | Ratio (T/C): NFkB-p65 (Phospho-Ser311) to total NFkB-p65 (Ab-529): 0.8783 | Ratio (T/C): NFkB-p65 (Phospho-Ser529) to total NFkB-p65 (Ab-529): 0.8263 | Ratio (T/C): NFkB-p100/p52 (Phospho-Ser865) to total NFkB-p100/p52 (Ab-865): 1.159 | Ratio (T/C): NFkB-p105/p50 (Phospho-Ser337) to total NFkB-p105/p50 (Ab-927): 1.219 | Ratio (T/C): P38 MAPK (Phospho-Thr180/Tyr182) to total P38 MAPK (Ab-182): 0.2071 | Ratio (T/C): P70S6K (Phospho-Ser424) to total P70S6K (Ab-229): 0.7495 | Ratio (T/C): P70S6K (Phospho-Thr421) to total P70S6K (Ab-229): 1.055 | Ratio (T/C): P73 (Phospho-Tyr99) to total P73 (Ab-99): 1.0107 | Ratio (T/C): P90RSK (Phospho-Thr359/Ser363) to total P90RSK (Ab-359/363): 0.8912 | Ratio (T/C): PDK1 (Phospho-Ser241) to total PDK1 (Ab-241): 0.9138 | Ratio (T/C): PLCG1 (Phospho-Tyr783) to total PLCG1 (Ab-783): 1.902 | Ratio (T/C): PLK1 (Phospho-Thr210) to total PLK1 (Ab-210): 0.3997 | Ratio (T/C): PP1 alpha (Phospho-Thr320) to total PP1 alpha (Ab-320): 0.867 | Ratio (T/C): PP2A-alpha (Phospho-Tyr307) to total PP2A-alpha (Ab-307): 0.7589 | Ratio (T/C): PPAR-gamma (Phospho-Ser112) to total PPAR-gamma (Ab-112): 0.8451 | Ratio (T/C): PTEN (Phospho-Ser380/Thr382/Thr383) to total PTEN (Ab-380): 0.6925 | Ratio (T/C): RSK1/2/3/4 (Phospho-Ser221/227/218/232) to total RSK1/2/3/4 (Ab-221/227/218/232): 1.05 | Ratio (T/C): Raf1 (Phospho-Ser259) to total Raf1 (Ab-43): 0.9472 | Ratio (T/C): Rb (Phospho-Ser608) to total Rb (Ab-807): 0.5194 | Ratio (T/C): Rb (Phospho-Ser807) to total Rb (Ab-807): 0.4329 | Ratio (T/C): RelB (Phospho-Ser552) to total RelB (Ab-552): 0.7768 | Ratio (T/C): SHP-2 (Phospho-Tyr542) to total SHP-2 (Ab-542): 0.9242 | Ratio (T/C): SRF (Phospho-Ser99) to total SRF (Ab-99): 0.6381 | Ratio (T/C): STAT2 (Phospho-Tyr690) to total STAT2 (Ab-690): 1.1086 | Ratio (T/C): STAT3 (Phospho-Tyr705) to total STAT3 (Ab-705): 0.8721 | Ratio (T/C): STAT5B (Phospho-Ser731) to total STAT5B (Ab-731): 1.008 | Ratio (T/C): STAT6 (Phospho-Thr645) to total STAT6 (Ab-645): 0.7953 | Ratio (T/C): SYK (Phospho-Tyr348) to total SYK (Ab-525): 0.9191 | Ratio (T/C): Shc (Phospho-Tyr349) to total Shc (Ab-349): 1.943 | Ratio (T/C): Smad1 (Phospho-Ser187) to total Smad1 (Ab-465): 1.9576 | Ratio (T/C): Smad2 (Phospho-Ser467) to total Smad2 (Ab-255): 0.3873 | Ratio (T/C): Smad2/3 (Phospho-Thr8) to total Smad2 (Ab-255): 0.779 | Ratio (T/C): Smad3 (Phospho-Ser213) to total Smad3 (Ab-425): 2.4313 | Ratio (T/C): Src (Phospho-Tyr418) to total Src (Ab-418): 0.4536 | Ratio (T/C): Synuclein alpha (Phospho-Tyr136) to total Synuclein alpha (Ab-125): 1.009 | Ratio (T/C): Tau (Phospho-Ser235) to total Tau (Ab-235): 0.4913 | Ratio (T/C): Tau (Phospho-Ser396) to total Tau (Ab-235): 0.4515 | Ratio (T/C): Trk B (Phospho-Tyr515) to total Trk B (Ab-515): 0.8791 | Ratio (T/C): VEGFR2 (Phospho-Tyr1175) to total VEGFR2 (Ab-1214): 0.7882 | Ratio (T/C): VEGFR2 (Phospho-Tyr1214) to total VEGFR2 (Ab-1214): 1.1348 | Ratio (T/C): Zap-70 (Phospho-Tyr319) to total Zap-70 (Ab-319): 0.9346 | Ratio (T/C): c-Jun (Phospho-Ser73) to total c-Jun (Ab-243): 0.8772 | Ratio (T/C): eEF2K (Phospho-Ser366) to total eEF2K (Ab-366): 0.5517 | Ratio (T/C): eIF2A (Phospho-Ser51) to total eIF2A (Ab-51): 1.082 | Ratio (T/C): eNOS (Phospho-Ser615) to total eNOS (Ab-1179): 1.215 | Ratio (T/C): mTOR (Phospho-Ser2481) to total mTOR (Ab-2481): 1.125 | Ratio (T/C): p44/42 MAP Kinase (Phospho-Tyr204) to total p44/42 MAP Kinase (Ab-202): 0.9379 | Ratio (T/C): p53 (Phospho-Ser9) to total p53 (Ab-315): 0.8012 | Ratio (T/C): p53 (Phospho-Ser15) to total p53 (Ab-315): 0.1195 | Ratio (T/C): p53 (Phospho-Ser315) to total p53 (Ab-315): 0.641
